Test results taken from patent US5004738A, “1,1-dioxopenicillanoyl oxymethyl D-6-(α-(methyleneamino) phenylacetamido)-penicillanate and a process for the preparation thereof” (priority 1989, dated 1991).
Values after ≈ are worked out from the molar mass of the structure shown.

How the values were obtained:
[1] = tested on: gram-positive and gram-negative bacteria; settings: cited from earlier work
β-lactamases = settings: cited from earlier work
[2] = tested on: Streptococcus faecium MD8; test: In vitro antibacterial activity test (agar dilution, Mueller Hinton Agar); assay type: cell-based; settings: Enterococcus faecium, 18 hours at 37° C.
Protocol: (§1) (1) In vitro antibacterial activity test
(§2) 2 fold dilutions of the testing compounds were employed by using agar dilution method of Mueller Hinton Agar. After 18 hours at 37° C., the susceptibility (MIC) of the test organism was accepted as the lowest concentration of compound capable of producing complete inhibition of growth as judged by the naked eye.

[3] = tested on: Enterobacter cloacae 132E; test: as above; assay type: cell-based; settings: 18 hours at 37° C.
Protocol: as §1, §2

Escherichia coli DC2 = test: as above; assay type: cell-based; settings: 18 hours at 37° C.
Protocol: as §1, §2

[4] = tested on: Staphylococcus aureus SG511; test: as above; assay type: cell-based; settings: 18 hours at 37° C.
Protocol: as §1, §2

Which “inhibition against gram-positive and gram-negative bacteria” value [1] does the source give for `C=N[C@@H](C(=O)N[C@@H]1C(=O)N2[C@@H]1SC(C)(C)[C@@H]2C(=O)O)c1ccccc1` [Methanpicillin] here?
Its value is “marked increase in inhibition against gram-positive and gram-negative bacteria”.

Which “inhibition of β-lactamases” value (β-lactamases; alone) does the source give for `CC1(C)[C@H](C(=O)O)N2C(=O)C[C@H]2S1(=O)=O` [sulbactam, 3.3-dimethyl-7-oxo-4thia-1-azabicyclo(3.2.0)heptane-2-carboxylic acid, 4-4-dioxide [2S(2α,5α)]] here?
The value was “poor inhibitor of β-lactamases”.

What about the “inhibition of the enzymatic hydrolysis of antibiotics” value (β-lactamases; with β-lactamase inhibiting antibiotics) of the same compound?
The value was “modest increase in inhibition of the enzymatic hydrolysis of antibiotics”.

With `C=N[C@@H](C(=O)N[C@@H]1C(=O)N2[C@@H]1SC(C)(C)[C@@H]2C(=O)OCOC(=O)[C@@H]1N2C(=O)C[C@H]2S(=O)(=O)C1(C)C)c1ccccc1` [compound (I), 1,1-dioxopenicillanoyl oxymethyl D-6-[(α-methyleneamino)phenylacetamido]-penicillanate] as the compound, how does the MIC [2] read?
The MIC was 0.781 µg/mL (≈ 1.29 µM).

And the MIC [3]?
The MIC was 1.56 µg/mL (≈ 2.58 µM).

What about the MIC (Escherichia coli DC2) of the same compound?
The MIC was 1.56 µg/mL (≈ 2.58 µM).

What about the MIC [4] of the same compound?
The MIC was 0.098 µg/mL (≈ 0.162 µM).
